Results reported in publication PMC9785850, “Encorafenib Acts as a Dual-Activity Chemosensitizer through Its Inhibitory Effect on ABCC1 Transporter In Vitro and Ex Vivo” (Pharmaceutics, 2022).

Columns and labels:
[1] = biological target: T1, P-glycoprotein (ABCB1) (Homo sapiens, UniProt P08183); experiment: daunorubicin accumulation assay in MDCKII-ABCB1 cells, flow cytometry; type: cell-based
T1 construct: human ABCB1 overexpressed in MDCKII cells

[2] = biological target: T2, ABCC1 (Homo sapiens, UniProt P33527); experiment: daunorubicin accumulation assay in MDCKII-ABCC1 cells, flow cytometry; type: cell-based
T2 construct: human ABCC1 overexpressed in MDCKII cells
T2 sequence (P33527 whole entry): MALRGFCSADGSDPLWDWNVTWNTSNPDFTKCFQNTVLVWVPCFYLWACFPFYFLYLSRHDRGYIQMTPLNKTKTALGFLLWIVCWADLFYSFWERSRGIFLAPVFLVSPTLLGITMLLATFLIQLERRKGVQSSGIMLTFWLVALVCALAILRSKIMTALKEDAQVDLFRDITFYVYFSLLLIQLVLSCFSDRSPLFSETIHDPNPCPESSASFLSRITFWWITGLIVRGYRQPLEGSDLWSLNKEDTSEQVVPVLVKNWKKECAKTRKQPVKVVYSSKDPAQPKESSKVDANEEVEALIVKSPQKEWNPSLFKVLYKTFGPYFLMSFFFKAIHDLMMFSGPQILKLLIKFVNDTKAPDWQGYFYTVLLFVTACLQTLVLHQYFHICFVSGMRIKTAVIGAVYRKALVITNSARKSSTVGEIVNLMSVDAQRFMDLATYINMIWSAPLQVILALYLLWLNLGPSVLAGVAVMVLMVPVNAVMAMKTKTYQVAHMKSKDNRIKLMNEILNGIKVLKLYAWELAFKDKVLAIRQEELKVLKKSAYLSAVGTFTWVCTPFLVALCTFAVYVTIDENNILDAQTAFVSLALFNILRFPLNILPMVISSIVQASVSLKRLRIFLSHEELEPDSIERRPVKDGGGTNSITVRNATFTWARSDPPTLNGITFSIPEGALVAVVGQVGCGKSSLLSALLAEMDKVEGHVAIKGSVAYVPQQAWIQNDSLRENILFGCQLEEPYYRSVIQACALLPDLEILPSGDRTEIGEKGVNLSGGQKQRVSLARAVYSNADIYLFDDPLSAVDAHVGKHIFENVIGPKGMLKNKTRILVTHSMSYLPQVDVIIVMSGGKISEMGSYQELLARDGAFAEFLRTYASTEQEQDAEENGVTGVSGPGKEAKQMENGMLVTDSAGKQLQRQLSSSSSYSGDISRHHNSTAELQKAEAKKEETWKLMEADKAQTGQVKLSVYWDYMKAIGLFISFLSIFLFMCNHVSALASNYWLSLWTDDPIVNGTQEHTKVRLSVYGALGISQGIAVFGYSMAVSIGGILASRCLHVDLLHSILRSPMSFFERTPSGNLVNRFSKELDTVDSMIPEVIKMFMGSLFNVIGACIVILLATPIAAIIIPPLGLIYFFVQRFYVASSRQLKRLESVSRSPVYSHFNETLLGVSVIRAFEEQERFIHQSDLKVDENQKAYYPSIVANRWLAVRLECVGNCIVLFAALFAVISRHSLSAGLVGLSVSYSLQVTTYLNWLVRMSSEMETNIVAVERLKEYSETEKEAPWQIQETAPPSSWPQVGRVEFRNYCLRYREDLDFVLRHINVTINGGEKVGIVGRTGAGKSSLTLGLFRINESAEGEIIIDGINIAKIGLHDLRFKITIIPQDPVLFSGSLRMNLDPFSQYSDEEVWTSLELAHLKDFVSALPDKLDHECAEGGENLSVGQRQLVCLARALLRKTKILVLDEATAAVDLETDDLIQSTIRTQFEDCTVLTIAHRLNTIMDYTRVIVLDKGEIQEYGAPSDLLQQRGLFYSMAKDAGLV

T1 sequence (P08183 whole entry): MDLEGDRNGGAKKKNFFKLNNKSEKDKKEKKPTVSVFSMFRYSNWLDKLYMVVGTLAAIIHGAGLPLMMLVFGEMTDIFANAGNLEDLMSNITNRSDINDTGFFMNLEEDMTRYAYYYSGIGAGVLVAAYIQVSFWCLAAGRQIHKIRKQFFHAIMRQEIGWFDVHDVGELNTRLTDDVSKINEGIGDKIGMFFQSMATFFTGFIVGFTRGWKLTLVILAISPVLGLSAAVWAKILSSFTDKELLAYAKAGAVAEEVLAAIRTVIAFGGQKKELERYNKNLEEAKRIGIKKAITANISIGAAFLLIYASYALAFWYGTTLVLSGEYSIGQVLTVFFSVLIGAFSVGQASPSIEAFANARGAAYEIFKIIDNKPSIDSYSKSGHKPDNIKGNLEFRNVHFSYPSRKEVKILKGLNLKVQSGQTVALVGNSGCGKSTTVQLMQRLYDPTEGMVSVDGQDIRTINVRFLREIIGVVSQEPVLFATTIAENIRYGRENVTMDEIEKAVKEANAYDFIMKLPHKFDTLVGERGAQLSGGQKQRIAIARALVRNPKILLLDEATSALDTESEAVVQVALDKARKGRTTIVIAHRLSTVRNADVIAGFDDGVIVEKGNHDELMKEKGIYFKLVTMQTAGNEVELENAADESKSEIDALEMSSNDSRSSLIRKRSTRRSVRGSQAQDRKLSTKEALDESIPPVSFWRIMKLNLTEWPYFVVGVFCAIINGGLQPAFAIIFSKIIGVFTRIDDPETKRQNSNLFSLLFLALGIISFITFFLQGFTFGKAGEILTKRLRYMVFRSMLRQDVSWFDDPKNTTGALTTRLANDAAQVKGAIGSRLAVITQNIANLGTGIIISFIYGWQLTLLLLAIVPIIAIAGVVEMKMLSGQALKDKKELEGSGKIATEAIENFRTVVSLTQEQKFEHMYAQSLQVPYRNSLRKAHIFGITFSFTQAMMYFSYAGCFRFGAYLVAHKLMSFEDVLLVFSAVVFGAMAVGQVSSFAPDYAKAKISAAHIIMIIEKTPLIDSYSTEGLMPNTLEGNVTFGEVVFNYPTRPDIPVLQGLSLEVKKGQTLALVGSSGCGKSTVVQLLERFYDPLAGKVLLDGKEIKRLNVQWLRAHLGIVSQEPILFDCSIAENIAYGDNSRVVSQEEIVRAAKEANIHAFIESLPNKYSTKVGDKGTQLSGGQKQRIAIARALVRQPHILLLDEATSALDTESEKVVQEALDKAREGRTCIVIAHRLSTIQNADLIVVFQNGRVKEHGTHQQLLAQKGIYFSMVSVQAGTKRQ

Molecule `COC(=O)N[C@@H](C)CNc1nccc(-c2cn(C(C)C)nc2-c2cc(Cl)cc(NS(C)(=O)=O)c2F)n1` [encorafenib] has an IC50 [1] of 25.1 µM and an IC50 [2] of 8.63 µM.
